Laboratory results reported in patent US8326545B2, “System and method for displaying a pharmacokinetic and pharmacodynamic drug model” (General Electric Company, priority 2006, dated 2012).

How the values were obtained:
[1] = minimum alveolar concentration; cited from earlier work
[2] = Age MAC Awake (variation on MAC that accounts for age and adjusts to consciousness); type: in vivo, patient
Excerpt: Interactions are labeled “unknown” when (CeAA>0.3%*AgeMACawake); wherein AGEMACawake is a variation on MAC that accounts for age and adjusts to consciousness.

SMILES | MAC [1] | Age MAC Awake ([2]; age 18) | Age MAC Awake ([2]; donor one) | Age MAC Awake ([2]; donor two)
FC(F)OC(F)C(F)(F)F (stereo not drawn) [Desflurane] | 6 | 2.396 | 2.055 | 1.450
FC(F)OC(F)(F)C(F)Cl (stereo not drawn) [Enflurane] | 1.7 | 0.679 | 0.582 | 0.411
FC(F)(F)C(Cl)Br (stereo not drawn) [Halothane] | 0.75 | 0.481 | 0.413 | 0.291
FC(F)OC(Cl)C(F)(F)F (stereo not drawn) [Isoflurane] | 1.15 | 0.459 | 0.394 | 0.278
[N-]=[N+]=O [Nitrous Oxide] | 100 | 64.148 | 55.021 | 38.817
FCOC(C(F)(F)F)C(F)(F)F [Sevoflurane] | 2.05 | 0.819 | 0.702 | 0.495
